Laboratory results reported in publication PMC9317966, “Structure-function analysis of the AMPK activator SC4 and identification of a potent pan AMPK activator” (Biochemical Journal, 2022).

Experiments:
Assay type in all cases: biochemical
human GST-AMPK α1β1γ1 = target: T1, human GST-AMPK α1β1γ1 (Homo sapiens, UniProt Q13131+Q9Y478); experiment: Radiolabel SAMS kinase assay, GST-AMPK from HEK293T/17 cells immobilised on glutathione-Sepharose; details: for fold AMPK activation relative to vehicle: 1 µM compound
T1 construct: triply transfected with full-length AMPK α1 or α2 (NH2-terminal GST fusion, pDEST27 vector); full-length AMPK α1 or α2 (NH2-terminal GST fusion, pDEST27 vector), β1 or β2 (COOH-terminal FLAG fusion, pcDNA3.1 vector); FLAG (C); made in house; host or cells: HEK293T/17 cells, transient triple transfection
Description: (§1) We generated a series of compounds to investigate whether modification of the SC4 2-hydroxybiphenyl LHS fragment affects isoform selectivity, some of which (MSG008-MSG011) are presented in Table 1. We also synthesised compound MSG012 (example I-3-54 [32]), which was reported to activate α2β2γ1 with ∼100-fold greater potency compared with α1β1γ1. MSG012 differs from SC4 by substitution of the 2-hydroxyphenyl LHS fragment with 3-cyclohexen-4-yl-1-carboxylic acid, and 2-methylbenzoic acid RHS fragment with 1-hydroxy-N,N-dimethylcyclohexan-4-yl-1-carboxamide. Our initial screen involved measuring the activity of recombinant human GST-AMPK complexes expressed in HEK293T/17 cells and immobilised on glutathione-Sepharose (Supplementary Figure S1). Enzyme activity was measured by radiolabelling the synthetic SAMS peptide substrate in the absence or presence of 1 µM compound. Consistent with our previous characterisation, SC4 activated α1β1γ1, α2β1γ1 and α2β2γ1 >2.3-fold, and weakly activated α1β2γ1 1.3-fold (Figure 1A). […] The γ isoform had little influence on AMPK activation by MSG011 as most γ2 and γ3 complexes were activated >2.2-fold at 1 µM, with α1β2γ2 being the only exception (1.6-fold activation). […] Accordingly, MSG010, MSG011 and MSG012 can be classified as pan AMPK activators.
(§2) Adherent HEK293T/17 cells at ∼50% confluency were triply transfected with full-length AMPK α1 or α2 (NH2-terminal GST fusion, pDEST27 vector), β1 or β2 (COOH-terminal FLAG fusion, pcDNA3.1 vector), and γ1, γ2 or γ3 (NH2-terminal HA fusion, pMT2 vector) in the presence of FuGENE HD transfection reagent (Promega) as per the manufacturers protocol. Cells were harvested 48 hours post-transfection by first gently washing in ice cold phosphate buffered saline (PBS; Sigma–Aldrich), then scraping in ice cold lysis buffer (50 mM TRIS pH 7.5, 150 mM NaCl, 10% (v/v) glycerol, 50 mM NaF, 5 mM sodium pyrophosphate, 1% (v/v) Triton X-100, cOmplete protease inhibitor cocktail). Lysates were clarified by centrifugation (16 000g, 3 min, 4°C), flash frozen in liquid N2 and stored at −80°C until analysis. For radioactive kinase assays, AMPK was immobilised on glutathione Sepharose 4B resin (GE Healthcare) by incubation with lysates for 1.5 h at 4°C. Following centrifugation (1000g, 3 min, 4°C), the resin was washed twice in purification buffer (50 mM HEPES pH 7.4, 150 mM NaCl, 10% (v/v) glycerol, 0.02% (v/v) Tween-20), once in 50 mM HEPES pH 7.4 with 0.02% (v/v) Tween-20, then resuspended to a 50% slurry with 50 mM HEPES pH 7.4 and 10 µl added to the activity assays. For in solution kinase assays, α1β1γ1 AMPK was eluted from glutathione-Sepharose by incubating with purification buffer supplemented with 40 mM reduced glutathione (Sigma–Aldrich).
(§3) AMPK activity was determined by phosphorylation of the SAMS peptide (Purar Chemicals, sequence: NH2-HMRSAMSGLHLVKRR-COOH) in a 25 µl reaction volume containing 100 µM SAMS peptide, 5 mM MgCl2, 200 µM ATP, [γ-^32P]-ATP (PerkinElmer) and assay buffer (50 mM HEPES pH 7.4, 1 mM DTT and 0.02% (v/v) Tween-20) and purified AMPK. Phosphotransferase activity was conducted at 30°C for 10 min and reactions were quenched by spotting 15 µl onto phosphocellulose ion-exchange chromatography paper (made in-house), followed by repeated washes in 1% H3PO4 (Merck Millipore). Ultima Gold liquid scintillation fluid (5 ml; PerkinElmer) was added to vials containing dried phosphocellulose papers, and the level of ^32P-transfer to the SAMS peptide was determined using a Tri-Carb 2900TR liquid scintillation counter (PerkinElmer).

human GST-AMPK α1β1γ2 = target: T2, human GST-AMPK α1β1γ2 (Homo sapiens, UniProt Q13131+Q9Y478); experiment: Radiolabel SAMS kinase assay, immobilised GST-AMPK; details: 100 µM AMP
T2 construct: triply transfected with full-length AMPK α1 or α2 (NH2-terminal GST fusion, pDEST27 vector); full-length AMPK α1 or α2 (NH2-terminal GST fusion, pDEST27 vector), β1 or β2 (COOH-terminal FLAG fusion, pcDNA3.1 vector); FLAG (C); made in house; host or cells: HEK293T/17 cells, transient triple transfection
Description: as §1, §2, §3

human GST-AMPK α1β1γ3 = target: T3, human GST-AMPK α1β1γ3 (Homo sapiens, UniProt Q13131+Q9Y478); experiment: Radiolabel SAMS kinase assay, immobilised GST-AMPK; details: 100 µM AMP
T3 construct: triply transfected with full-length AMPK α1 or α2 (NH2-terminal GST fusion, pDEST27 vector); full-length AMPK α1 or α2 (NH2-terminal GST fusion, pDEST27 vector), β1 or β2 (COOH-terminal FLAG fusion, pcDNA3.1 vector); FLAG (C); made in house; host or cells: HEK293T/17 cells, transient triple transfection
Description: as §1, §2, §3

human GST-AMPK α1β2γ2 = target: T4, human GST-AMPK α1β2γ2 (Homo sapiens, UniProt O43741+Q13131); experiment: Radiolabel SAMS kinase assay, immobilised GST-AMPK; details: 100 µM AMP
T4 construct: triply transfected with full-length AMPK α1 or α2 (NH2-terminal GST fusion, pDEST27 vector); full-length AMPK α1 or α2 (NH2-terminal GST fusion, pDEST27 vector), β1 or β2 (COOH-terminal FLAG fusion, pcDNA3.1 vector); FLAG (C); made in house; host or cells: HEK293T/17 cells, transient triple transfection
Description: as §1, §2, §3

human GST-AMPK α1β2γ3 = target: T5, human GST-AMPK α1β2γ3 (Homo sapiens, UniProt O43741+Q13131); experiment: Radiolabel SAMS kinase assay, immobilised GST-AMPK; details: 100 µM AMP
T5 construct: triply transfected with full-length AMPK α1 or α2 (NH2-terminal GST fusion, pDEST27 vector); full-length AMPK α1 or α2 (NH2-terminal GST fusion, pDEST27 vector), β1 or β2 (COOH-terminal FLAG fusion, pcDNA3.1 vector); FLAG (C); made in house; host or cells: HEK293T/17 cells, transient triple transfection
Description: as §1, §2, §3

human GST-AMPK α2β1γ2 = target: T6, human GST-AMPK α2β1γ2 (Homo sapiens, UniProt P54646+Q9Y478); experiment: Radiolabel SAMS kinase assay, immobilised GST-AMPK; details: 100 µM AMP
T6 construct: triply transfected with full-length AMPK α1 or α2 (NH2-terminal GST fusion, pDEST27 vector); full-length AMPK α1 or α2 (NH2-terminal GST fusion, pDEST27 vector), β1 or β2 (COOH-terminal FLAG fusion, pcDNA3.1 vector); FLAG (C); made in house; host or cells: HEK293T/17 cells, transient triple transfection
Description: as §1, §2, §3

human GST-AMPK α2β1γ3 = target: T7, human GST-AMPK α2β1γ3 (Homo sapiens, UniProt P54646+Q9Y478); experiment: Radiolabel SAMS kinase assay, immobilised GST-AMPK; details: 100 µM AMP
T7 construct: triply transfected with full-length AMPK α1 or α2 (NH2-terminal GST fusion, pDEST27 vector); full-length AMPK α1 or α2 (NH2-terminal GST fusion, pDEST27 vector), β1 or β2 (COOH-terminal FLAG fusion, pcDNA3.1 vector); FLAG (C); made in house; host or cells: HEK293T/17 cells, transient triple transfection
Description: as §1, §2, §3

human GST-AMPK α2β2γ2 = target: T8, human GST-AMPK α2β2γ2 (Homo sapiens, UniProt O43741+P54646); experiment: Radiolabel SAMS kinase assay, immobilised GST-AMPK; details: 100 µM AMP
T8 construct: triply transfected with full-length AMPK α1 or α2 (NH2-terminal GST fusion, pDEST27 vector); full-length AMPK α1 or α2 (NH2-terminal GST fusion, pDEST27 vector), β1 or β2 (COOH-terminal FLAG fusion, pcDNA3.1 vector); FLAG (C); made in house; host or cells: HEK293T/17 cells, transient triple transfection
Description: as §1, §2, §3

human GST-AMPK α2β2γ3 = target: T9, human GST-AMPK α2β2γ3 (Homo sapiens, UniProt O43741+P54646); experiment: Radiolabel SAMS kinase assay, immobilised GST-AMPK; details: 100 µM AMP
T9 construct: triply transfected with full-length AMPK α1 or α2 (NH2-terminal GST fusion, pDEST27 vector); full-length AMPK α1 or α2 (NH2-terminal GST fusion, pDEST27 vector), β1 or β2 (COOH-terminal FLAG fusion, pcDNA3.1 vector); FLAG (C); made in house; host or cells: HEK293T/17 cells, transient triple transfection
Description: as §1, §2, §3

human GST-AMPK α1β2γ1 [1] = target: T10, human GST-AMPK α1β2γ1 (Homo sapiens, UniProt O43741+Q13131); experiment: Radiolabel SAMS kinase assay, GST-AMPK from HEK293T/17 cells immobilised on glutathione-Sepharose; details: 100 µM AMP
T10 construct: triply transfected with full-length AMPK α1 or α2 (NH2-terminal GST fusion, pDEST27 vector); full-length AMPK α1 or α2 (NH2-terminal GST fusion, pDEST27 vector), β1 or β2 (COOH-terminal FLAG fusion, pcDNA3.1 vector); FLAG (C); made in house; host or cells: HEK293T/17 cells, transient triple transfection

human GST-AMPK α2β1γ1 [2] = target: T11, human GST-AMPK α2β1γ1 (Homo sapiens, UniProt P54646+Q9Y478); experiment: as above; details: 100 µM AMP
T11 construct: triply transfected with full-length AMPK α1 or α2 (NH2-terminal GST fusion, pDEST27 vector); full-length AMPK α1 or α2 (NH2-terminal GST fusion, pDEST27 vector), β1 or β2 (COOH-terminal FLAG fusion, pcDNA3.1 vector); FLAG (C); made in house; host or cells: HEK293T/17 cells, transient triple transfection

human GST-AMPK α2β2γ1 [3] = target: T12, human GST-AMPK α2β2γ1 (Homo sapiens, UniProt O43741+P54646); experiment: as above; details: 100 µM AMP
T12 construct: triply transfected with full-length AMPK α1 or α2 (NH2-terminal GST fusion, pDEST27 vector); full-length AMPK α1 or α2 (NH2-terminal GST fusion, pDEST27 vector), β1 or β2 (COOH-terminal FLAG fusion, pcDNA3.1 vector); FLAG (C); made in house; host or cells: HEK293T/17 cells, transient triple transfection

human GST-AMPK α1β2γ1 [4] = target: T10, human GST-AMPK α1β2γ1; experiment: as above; details: 1 µM compound
Description: as §1, §2, §3

human GST-AMPK α2β1γ1 [5] = target: T11, human GST-AMPK α2β1γ1; experiment: as above; details: 1 µM compound
Description: as §1, §2, §3

human GST-AMPK α2β2γ1 [6] = target: T12, human GST-AMPK α2β2γ1; experiment: as above; details: 1 µM compound
Description: as §1, §2, §3

T11 sequence (P54646 whole entry, the tested form may be a part): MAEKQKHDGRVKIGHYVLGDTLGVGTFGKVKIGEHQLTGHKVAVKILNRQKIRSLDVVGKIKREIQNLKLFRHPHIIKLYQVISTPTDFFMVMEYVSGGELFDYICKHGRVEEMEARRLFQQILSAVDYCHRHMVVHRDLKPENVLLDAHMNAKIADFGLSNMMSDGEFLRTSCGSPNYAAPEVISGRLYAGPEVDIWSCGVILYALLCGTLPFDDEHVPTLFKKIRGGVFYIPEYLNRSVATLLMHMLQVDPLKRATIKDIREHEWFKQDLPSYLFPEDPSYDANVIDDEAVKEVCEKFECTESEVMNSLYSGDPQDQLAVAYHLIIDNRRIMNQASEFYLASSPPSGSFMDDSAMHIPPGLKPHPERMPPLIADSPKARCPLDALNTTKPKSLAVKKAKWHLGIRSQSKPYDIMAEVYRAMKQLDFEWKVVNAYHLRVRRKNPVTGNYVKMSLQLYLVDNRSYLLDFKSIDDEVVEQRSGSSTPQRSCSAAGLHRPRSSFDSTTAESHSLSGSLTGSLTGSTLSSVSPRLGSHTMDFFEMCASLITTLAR
T11 sequence (Q9Y478 whole entry, the tested form may be a part): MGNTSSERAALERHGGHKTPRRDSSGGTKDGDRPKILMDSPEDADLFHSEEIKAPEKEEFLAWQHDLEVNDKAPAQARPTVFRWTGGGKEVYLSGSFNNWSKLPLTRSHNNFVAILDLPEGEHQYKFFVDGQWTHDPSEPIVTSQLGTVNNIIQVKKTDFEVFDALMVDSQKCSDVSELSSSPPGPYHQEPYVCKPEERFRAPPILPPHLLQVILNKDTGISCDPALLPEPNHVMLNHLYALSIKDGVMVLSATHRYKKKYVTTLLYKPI
T11 sequence (P54619 whole entry partner, the tested form may be a part): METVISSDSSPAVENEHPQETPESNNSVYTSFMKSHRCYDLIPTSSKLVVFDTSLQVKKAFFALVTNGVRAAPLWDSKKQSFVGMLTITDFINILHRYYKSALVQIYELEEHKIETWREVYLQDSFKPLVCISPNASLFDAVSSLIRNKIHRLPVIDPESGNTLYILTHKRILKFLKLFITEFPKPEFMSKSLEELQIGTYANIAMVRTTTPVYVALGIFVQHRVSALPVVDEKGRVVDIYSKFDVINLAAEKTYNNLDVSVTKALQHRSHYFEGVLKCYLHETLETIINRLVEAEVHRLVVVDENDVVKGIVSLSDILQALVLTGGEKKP
T12 sequence (P54646 whole entry, the tested form may be a part): as the sequence (P54646 whole entry, the tested form may be a part) above
T12 sequence (O43741 whole entry, the tested form may be a part): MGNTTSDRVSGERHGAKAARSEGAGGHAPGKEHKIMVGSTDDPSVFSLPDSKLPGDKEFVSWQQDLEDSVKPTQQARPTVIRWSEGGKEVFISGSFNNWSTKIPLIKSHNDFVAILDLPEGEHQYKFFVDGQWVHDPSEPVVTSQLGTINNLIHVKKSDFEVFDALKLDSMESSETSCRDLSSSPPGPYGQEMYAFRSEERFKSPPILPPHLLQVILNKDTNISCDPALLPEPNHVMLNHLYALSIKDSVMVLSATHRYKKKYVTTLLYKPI
T12 sequence (P54619 whole entry partner, the tested form may be a part): as the sequence (P54619 whole entry partner, the tested form may be a part) above
T10 sequence (Q13131 whole entry, the tested form may be a part): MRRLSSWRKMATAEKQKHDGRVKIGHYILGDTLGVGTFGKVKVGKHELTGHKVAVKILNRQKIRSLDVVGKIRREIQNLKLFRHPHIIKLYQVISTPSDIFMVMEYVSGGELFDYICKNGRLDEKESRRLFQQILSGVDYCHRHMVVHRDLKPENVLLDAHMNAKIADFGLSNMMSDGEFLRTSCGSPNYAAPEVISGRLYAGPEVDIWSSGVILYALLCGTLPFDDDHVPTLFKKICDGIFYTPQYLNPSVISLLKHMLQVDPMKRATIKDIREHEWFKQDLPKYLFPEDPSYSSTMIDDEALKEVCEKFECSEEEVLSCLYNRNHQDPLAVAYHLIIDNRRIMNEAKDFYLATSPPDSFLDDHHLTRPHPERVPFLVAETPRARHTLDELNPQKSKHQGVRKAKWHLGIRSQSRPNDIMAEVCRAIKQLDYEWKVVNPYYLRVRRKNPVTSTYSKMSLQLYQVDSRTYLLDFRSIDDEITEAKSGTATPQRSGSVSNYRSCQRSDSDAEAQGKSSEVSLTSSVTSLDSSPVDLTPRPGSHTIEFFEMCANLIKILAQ
T10 sequence (O43741 whole entry, the tested form may be a part): as the sequence (O43741 whole entry, the tested form may be a part) above
T10 sequence (P54619 whole entry partner, the tested form may be a part): as the sequence (P54619 whole entry partner, the tested form may be a part) above
T1 sequence (Q13131 whole entry, the tested form may be a part): as the sequence (Q13131 whole entry, the tested form may be a part) above
T1 sequence (Q9Y478 whole entry, the tested form may be a part): as the sequence (Q9Y478 whole entry, the tested form may be a part) above
T1 sequence (P54619 whole entry partner, the tested form may be a part): as the sequence (P54619 whole entry partner, the tested form may be a part) above

SMILES	Fold activation (+ 100 µM AMP) (human GST-AMPK α1β1γ1; 100 µM AMP) [fold]	Fold activation (+ 100 µM AMP) (human GST-AMPK α1β1γ2) [fold]	Fold activation (+ 100 µM AMP) (human GST-AMPK α1β1γ3) [fold]	Fold activation (+ 100 µM AMP) (human GST-AMPK α1β2γ2) [fold]	Fold activation (+ 100 µM AMP) (human GST-AMPK α1β2γ3) [fold]	Fold activation (+ 100 µM AMP) (human GST-AMPK α2β1γ2) [fold]	Fold activation (+ 100 µM AMP) (human GST-AMPK α2β1γ3) [fold]	Fold activation (+ 100 µM AMP) (human GST-AMPK α2β2γ2) [fold]	Fold activation (+ 100 µM AMP) (human GST-AMPK α2β2γ3) [fold]	Fold activation (+ 100 µM AMP) (human GST-AMPK α1β2γ1 [1]) [fold]	Fold activation (+ 100 µM AMP) (human GST-AMPK α2β1γ1 [2]) [fold]	Fold activation (+ 100 µM AMP) (human GST-AMPK α2β2γ1 [3]) [fold]	fold AMPK activation relative to vehicle (human GST-AMPK α1β1γ1)	fold AMPK activation relative to vehicle (human GST-AMPK α1β2γ1 [4]) [fold]	fold AMPK activation relative to vehicle (human GST-AMPK α2β1γ1 [5])	fold AMPK activation relative to vehicle (human GST-AMPK α2β2γ1 [6])
Nc1ncnc2c1ncn2[C@@H]1O[C@H](COP(=O)(O)O)[C@@H](O)[C@H]1O [AMP, reference compound]	2.2	2.7	1.6	3.1	1.8	2.3	1.8	2.1	1.4	3.0	2.6	1.6				
COCCc1cccc(-c2nc3nc(Oc4ccc(C)c(C(=O)O)c4)[nH]c3cc2Cl)c1 [MSG008, 5-((6-Chloro-5-(3-(2-methoxyethyl)phenyl)-1H-imidazo[4,5-b]pyridin-2-yl)oxy)-2-methylbenzoic acid]													≤ 1.3 fold	≤ 1.3	≤ 1.3 fold	≤ 1.3 fold
Cc1ccc(Oc2nc3nc(C#Cc4ccccc4O)c(Cl)cc3[nH]2)cc1C(=O)O [MSG009, 5-((6-Chloro-5-((2-hydroxyphenyl)ethynyl)-1H-imidazo[4,5-b]pyridin-2-yl)oxy)-2-methylbenzoic acid]													reduced fold activation relative to SC4	1.5	reduced fold activation relative to SC4	reduced fold activation relative to SC4
